# From PubChem BioAssay AID1259407 (Chemical Carcinogenesis Research Information System (CCRIS), 2018)
# Calls of active or inactive are those of the source. How the calls were made is not given here.
# Test system: CCRIS mutagenicity, Ames/micronucleus/aberration tests
# Test: CCRIS mutagenicity studies
# [1] = Test System: AMES SALMONELLA TYPHIMURIUM, Strain/Indicator: TA100, Metabolic Activation: HAMSTER, LIVER, S-9, AROCLOR 1254 (10%), Method: PREINCUBATION
# [2] = Test System: AMES SALMONELLA TYPHIMURIUM, Strain/Indicator: TA100, Metabolic Activation: NONE, Method: PREINCUBATION
# [3] = Test System: AMES SALMONELLA TYPHIMURIUM, Strain/Indicator: TA100, Metabolic Activation: RAT, LIVER, S-9, AROCLOR 1254 (10%), Method: PREINCUBATION
# [4] = Test System: AMES SALMONELLA TYPHIMURIUM, Strain/Indicator: TA1535, Metabolic Activation: HAMSTER, LIVER, S-9, AROCLOR 1254 (10%), Method: PREINCUBATION
# [5] = Test System: AMES SALMONELLA TYPHIMURIUM, Strain/Indicator: TA1535, Metabolic Activation: NONE, Method: PREINCUBATION
# [6] = Test System: AMES SALMONELLA TYPHIMURIUM, Strain/Indicator: TA1535, Metabolic Activation: RAT, LIVER, S-9, AROCLOR 1254 (10%), Method: PREINCUBATION
# [7] = Test System: AMES SALMONELLA TYPHIMURIUM, Strain/Indicator: TA1537, Metabolic Activation: NONE, Method: PREINCUBATION
structure (smiles),measurement,setting,value
OCCO,mutagenic call,"Test System: AMES SALMONELLA TYPHIMURIUM, Strain/Indicator: TA98, Metabolic Activation: HAMSTER, LIVER, S-9, AROCLOR 1254 (10%), Method: PREINCUBATION",inactive; negative
same,mutagenic call,"Test System: AMES SALMONELLA TYPHIMURIUM, Strain/Indicator: TA98, Metabolic Activation: NONE, Method: PREINCUBATION",inactive; negative
same,mutagenic call,"Test System: AMES SALMONELLA TYPHIMURIUM, Strain/Indicator: TA98, Metabolic Activation: RAT LIVER S-9, PHENOBARBITAL AND BETA-NAPHTHOFLAVONE, Method: PREINCUBATION",inactive; negative
same,mutagenic call,"Test System: AMES SALMONELLA TYPHIMURIUM, Strain/Indicator: TA98, Metabolic Activation: RAT, LIVER, S-9, AROCLOR 1254 (10%), Method: PREINCUBATION",inactive; negative
same,mutagenic call,[1],inactive; negative
same,mutagenic call,[2],inactive; negative
same,mutagenic call,"Test System: AMES SALMONELLA TYPHIMURIUM, Strain/Indicator: TA100, Metabolic Activation: RAT LIVER S-9, PHENOBARBITAL AND BETA-NAPHTHOFLAVONE, Method: PREINCUBATION",inactive; negative
same,mutagenic call,[3],inactive; negative
same,mutagenic call,[4],inactive; negative
same,mutagenic call,[5],inactive; negative
same,mutagenic call,"Test System: AMES SALMONELLA TYPHIMURIUM, Strain/Indicator: TA1535, Metabolic Activation: RAT LIVER S-9, PHENOBARBITAL AND BETA-NAPHTHOFLAVONE, Method: PREINCUBATION",inactive; negative
same,mutagenic call,[6],inactive; negative
same,mutagenic call,"Test System: AMES SALMONELLA TYPHIMURIUM, Strain/Indicator: TA1537, Metabolic Activation: HAMSTER, LIVER, S-9, AROCLOR 1254 (10%), Method: PREINCUBATION",inactive; negative
same,mutagenic call,[7],inactive; negative
same,mutagenic call,"Test System: AMES SALMONELLA TYPHIMURIUM, Strain/Indicator: TA1537, Metabolic Activation: RAT LIVER S-9, PHENOBARBITAL AND BETA-NAPHTHOFLAVONE, Method: PREINCUBATION",inactive; negative
same,mutagenic call,"Test System: AMES SALMONELLA TYPHIMURIUM, Strain/Indicator: TA1537, Metabolic Activation: RAT, LIVER, S-9, AROCLOR 1254 (10%), Method: PREINCUBATION",inactive; negative
same,mutagenic call,"Test System: E.COLI, Strain/Indicator: WP2UVRA, Metabolic Activation: NONE, Method: PREINCUBATION",inactive; negative
same,mutagenic call,"Test System: E.COLI, Strain/Indicator: WP2UVRA, Metabolic Activation: RAT LIVER S-9, PHENOBARBITAL AND BETA-NAPHTHOFLAVONE, Method: PREINCUBATION",inactive; negative
same,mutagenic call,"Test System: MOUSE LYMPHOMA, Strain/Indicator: L5178Y (TK+/TK-), Metabolic Activation: NONE, Method: SUSPENSION/PLATE",inactive; negative
same,mutagenic call,"Test System: MOUSE LYMPHOMA, Strain/Indicator: L5178Y (TK+/TK-), Metabolic Activation: RAT, LIVER, S-9, AROCLOR 1254, Method: SUSPENSION/PLATE",inactive; negative
C(CCOCC1CO1)COCC1CO1 (stereo not drawn),mutagenic call,[1],active; positive
same,mutagenic call,[2],active; positive
same,mutagenic call,[3],active; positive
same,mutagenic call,[4],active; positive
same,mutagenic call,[5],active; positive
same,mutagenic call,[6],active; positive
C[C@@H]1CC[C@@]2(OC1)O[C@H]1C[C@H]3[C@@H]4CC=C5C[C@@H](O)CC[C@]5(C)[C@H]4CC[C@]3(C)[C@H]1[C@@H]2C,mutagenic call,"Test System: AMES SALMONELLA TYPHIMURIUM, Strain/Indicator: TA98, Metabolic Activation: HAMSTER, LIVER, S-9, AROCLOR 1254, Method: STANDARD PLATE",inactive; negative
same,mutagenic call,"Test System: AMES SALMONELLA TYPHIMURIUM, Strain/Indicator: TA98, Metabolic Activation: NONE, Method: STANDARD PLATE",inactive; negative
same,mutagenic call,"Test System: AMES SALMONELLA TYPHIMURIUM, Strain/Indicator: TA98, Metabolic Activation: RAT, LIVER, S-9, AROCLOR 1254, Method: STANDARD PLATE",inactive; negative
same,mutagenic call,"Test System: AMES SALMONELLA TYPHIMURIUM, Strain/Indicator: TA100, Metabolic Activation: HAMSTER, LIVER, S-9, AROCLOR 1254, Method: STANDARD PLATE",inactive; negative
same,mutagenic call,"Test System: AMES SALMONELLA TYPHIMURIUM, Strain/Indicator: TA100, Metabolic Activation: NONE, Method: STANDARD PLATE",inactive; negative
same,mutagenic call,"Test System: AMES SALMONELLA TYPHIMURIUM, Strain/Indicator: TA100, Metabolic Activation: RAT, LIVER, S-9, AROCLOR 1254, Method: STANDARD PLATE",inactive; negative
same,mutagenic call,"Test System: AMES SALMONELLA TYPHIMURIUM, Strain/Indicator: TA1535, Metabolic Activation: HAMSTER, LIVER, S-9, AROCLOR 1254, Method: STANDARD PLATE",inactive; negative
same,mutagenic call,"Test System: AMES SALMONELLA TYPHIMURIUM, Strain/Indicator: TA1535, Metabolic Activation: NONE, Method: STANDARD PLATE",inactive; negative
same,mutagenic call,"Test System: AMES SALMONELLA TYPHIMURIUM, Strain/Indicator: TA1535, Metabolic Activation: RAT, LIVER, S-9, AROCLOR 1254, Method: STANDARD PLATE",inactive; negative
same,mutagenic call,"Test System: AMES SALMONELLA TYPHIMURIUM, Strain/Indicator: TA1537, Metabolic Activation: HAMSTER, LIVER, S-9, AROCLOR 1254, Method: STANDARD PLATE",inactive; negative
same,mutagenic call,"Test System: AMES SALMONELLA TYPHIMURIUM, Strain/Indicator: TA1537, Metabolic Activation: NONE, Method: STANDARD PLATE",inactive; negative
same,mutagenic call,"Test System: AMES SALMONELLA TYPHIMURIUM, Strain/Indicator: TA1537, Metabolic Activation: RAT, LIVER, S-9, AROCLOR 1254, Method: STANDARD PLATE",inactive; negative
same,mutagenic call,"Test System: AMES SALMONELLA TYPHIMURIUM, Strain/Indicator: TA1538, Metabolic Activation: HAMSTER, LIVER, S-9, AROCLOR 1254, Method: STANDARD PLATE",inactive; negative
same,mutagenic call,"Test System: AMES SALMONELLA TYPHIMURIUM, Strain/Indicator: TA1538, Metabolic Activation: NONE, Method: STANDARD PLATE",inactive; negative
same,mutagenic call,"Test System: AMES SALMONELLA TYPHIMURIUM, Strain/Indicator: TA1538, Metabolic Activation: RAT, LIVER, S-9, AROCLOR 1254, Method: STANDARD PLATE",inactive; negative
Nc1ccc2nc3ccccc3c(N)c2c1,mutagenic call,[5],inactive; negative
same,mutagenic call,"Test System: AMES SALMONELLA TYPHIMURIUM, Strain/Indicator: TA1535, Metabolic Activation: RAT, LIVER, S-9, TETRACHLOROBIPHENYL, Method: PREINCUBATION",inactive; negative
same,mutagenic call,[7],active; positive
same,mutagenic call,"Test System: AMES SALMONELLA TYPHIMURIUM, Strain/Indicator: TA1537, Metabolic Activation: RAT, LIVER, S-9, TETRACHLOROBIPHENYL, Method: PREINCUBATION",active; positive
same,mutagenic call,"Test System: AMES SALMONELLA TYPHIMURIUM, Strain/Indicator: TA1538, Metabolic Activation: NONE, Method: PREINCUBATION",inactive; negative
same,mutagenic call,"Test System: AMES SALMONELLA TYPHIMURIUM, Strain/Indicator: TA1538, Metabolic Activation: RAT, LIVER, S-9, TETRACHLOROBIPHENYL, Method: PREINCUBATION",active; positive
same,mutagenic call,"Test System: AMES SALMONELLA TYPHIMURIUM, Strain/Indicator: TA1977, Metabolic Activation: NONE, Method: PREINCUBATION",active; positive
same,mutagenic call,"Test System: AMES SALMONELLA TYPHIMURIUM, Strain/Indicator: TA1977, Metabolic Activation: RAT, LIVER, S-9, TETRACHLOROBIPHENYL, Method: PREINCUBATION",active; positive
same,mutagenic call,"Test System: AMES SALMONELLA TYPHIMURIUM, Strain/Indicator: TA1978, Metabolic Activation: RAT, LIVER, S-9, TETRACHLOROBIPHENYL, Method: PREINCUBATION",inactive; negative
Cc1cccc2c1cc1ccc3cccc4ccc2c1c34,mutagenic call,"Test System: AMES SALMONELLA TYPHIMURIUM, Strain/Indicator: TA100, Metabolic Activation: RAT, INTACT HEPATOCYTES, AROCLOR 1254, Method: PREINCUBATION",inactive; negative
same,mutagenic call,"Test System: AMES SALMONELLA TYPHIMURIUM, Strain/Indicator: TA100, Metabolic Activation: RAT, NADPH-FORTIFIED HOMOGENIZED HEPATOCYTES, AROCLOR 1254, Method: PREINCUBATION",active; positive
N[C@@H](Cc1cc(I)c(Oc2cc(I)c(O)c(I)c2)c(I)c1)C(=O)O,mutagenic call,"End Point: In vitro micronucleus, Test System: Human peripheral blood lymphocytes, Metabolic Activation: None",inactive; negative
